The supplement of paper PMC10307832

Assays:
Assay in all cases: relative viability (nuclei count vs DMSO), 5 days (fraction); higher = more cells survive
Serdemetan + Linsitinib = compound: c1ccc2c(CCNc3ccc(Nc4ccncc4)cc3)c[nH]c2c1 [Serdemetan] + C[C@]1(O)C[C@@H](c2nc(-c3ccc4ccc(-c5ccccc5)nc4c3)c3c(N)nccn32)C1 [Linsitinib] (partner 1 µM)
Procedure, shortened: (§1)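 Cells from lung cancer lines were seeded into 1536-well plates and, one day later, dosed by pin tool. Treatments were either a single drug or a fixed dose of an anchor drug with five library-drug doses (not always all listed) in √10 steps. After 5 days, nuclei were stained in a one-step fixation (final 0.05% Triton X-100, 1% formaldehyde, 1 ug/ml Hoechst) and counted on 4× images, and relative viability is the treated-to-vehicle nuclei ratio, as the median of duplicate plates.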

Selisistat + Luminespib = compound: C1CC(C2=C(C1)C3=C(N2)C=CC(=C3)Cl)C(=O)N [Selisistat] + CCNC(=O)c1noc(-c2cc(C(C)C)c(O)cc2O)c1-c1ccc(CN2CCOCC2)cc1 [Luminespib] (partner 0.01 µM)
Procedure, shortened: as §1

Serdemetan + Trametinib = compound: c1ccc2c(CCNc3ccc(Nc4ccncc4)cc3)c[nH]c2c1 [Serdemetan] + CC(=O)Nc1cccc(-n2c(=O)n(C3CC3)c(=O)c3c(Nc4ccc(I)cc4F)n(C)c(=O)c(C)c32)c1 [Trametinib] (partner 0.02 µM)
Procedure, shortened: as §1

Serdemetan + Decitabine = compound: c1ccc2c(CCNc3ccc(Nc4ccncc4)cc3)c[nH]c2c1 [Serdemetan] + Nc1ncn([C@H]2C[C@H](O)[C@@H](CO)O2)c(=O)n1 [Decitabine] (partner 2 µM)
Procedure, shortened: as §1

Cell Line	relative viability (Serdemetan + Linsitinib; first compound 0.04 µM)	relative viability (Serdemetan + Linsitinib; first compound 0.1265 µM)	relative viability (Serdemetan + Linsitinib; first compound 0.4 µM)	relative viability (Serdemetan + Linsitinib; first compound 1.265 µM)	relative viability (Serdemetan + Linsitinib; first compound 4 µM)	relative viability (Selisistat + Luminespib; first compound 0.4 µM)	relative viability (Selisistat + Luminespib; first compound 1.265 µM)	relative viability (Selisistat + Luminespib; first compound 4 µM)	relative viability (Selisistat + Luminespib; first compound 12.65 µM)	relative viability (Selisistat + Luminespib; first compound 40 µM)	relative viability (Serdemetan + Trametinib; first compound 0.04 µM)	relative viability (Serdemetan + Trametinib; first compound 0.1265 µM)	relative viability (Serdemetan + Trametinib; first compound 0.4 µM)	relative viability (Serdemetan + Trametinib; first compound 1.265 µM)	relative viability (Serdemetan + Trametinib; first compound 4 µM)	relative viability (Serdemetan + Decitabine; first compound 0.04 µM)	relative viability (Serdemetan + Decitabine; first compound 0.1265 µM)	relative viability (Serdemetan + Decitabine; first compound 0.4 µM)	relative viability (Serdemetan + Decitabine; first compound 1.265 µM)	relative viability (Serdemetan + Decitabine; first compound 4 µM)
NCI-H460	0.747	0.71	0.537	0.153	0.104	0.0268	0.0346	0.0301	0.0377	0.0409	0.0926	0.172	0.134	0.0472	0.0554	0.374	0.385	0.314	0.194	0.102
NCI-H520	0.973	1.02	0.817	0.808	0.774	0.233	0.255	0.232	0.233	0.206	0.632	0.65	0.623	0.57	0.428	0.44	0.481	0.57	0.4	0.335
NCI-H596	1.14	1.04	0.789	0.623	0.541	0.981	0.938	1.08	0.668	0.775	0.894	0.883	0.618	0.526	0.517	0.965	0.94	0.772	0.636	0.588
NCI-H647	1.06	1.11	1.11	0.944	0.982	0.119	0.205	0.146	0.111	0.15	0.482	0.475	0.558	0.361	0.304	0.276	0.368	0.403	0.28	0.235
NCI-H650	0.681	0.922	0.883	0.737	0.688	0.874	0.772	0.894	0.77	0.665	0.891	0.937	0.986	0.903	0.612	0.321	0.331	0.321	0.24	0.262
NCI-H661	0.521	0.635	0.606	0.563	0.418	0.977	0.966	0.928	0.833	0.732	0.551	0.603	0.621	0.512	0.517	0.543	0.533	0.533	0.473	0.469
NCI-H727	0.286	0.238	0.28	0.124	0.191	0.389	0.231	–	0.268	0.349	0.376	0.37	0.367	0.382	0.33	0.849	0.797	0.828	0.965	0.826
NCI-H838	0.995	1.04	0.961	0.989	1.17	0.313	0.332	0.349	0.392	0.311	0.47	0.538	0.555	0.526	0.575	0.437	0.459	0.404	0.386	0.451
